Experimental data as given in ChEMBL document CHEMBL3046658, “Fate of cyromazine applied in nutrient solution to a gerbera (Gerbera jamesonii) crop grown in a closed hydroponic system” (Crop Prot, 2007).

Assays:
Type in all cases: ADME
Flower [1] = experiment: Drug recovery in flower of Gerbera jamesonii grown in closed hydroponic system at 45 g applied through nutrient solution measured on day 56 post-treatment by gas chromatographic analysis; settings: in vivo, other
Root [2] = experiment: Drug level in root of Gerbera jamesonii grown in closed hydroponic system assessed per fresh weight at 750 mg/l applied through nutrient solution measured on day 17 post-treatment in winter by gas chromatographic analysis; settings: other
Root [3] = experiment: Drug recovery in root of Gerbera jamesonii grown in closed hydroponic system at 22.5 g applied through nutrient solution measured on day 56 post-treatment by gas chromatographic analysis; settings: in vivo, other
Flower [4] = experiment: Drug level in flower of Gerbera jamesonii grown in closed hydroponic system assessed per fresh weight at 750 mg/l applied through nutrient solution measured on day 121 post-treatment in winter by gas chromatographic analysis; settings: other
Leaf [5] = experiment: Drug recovery in leaf of Gerbera jamesonii grown in closed hydroponic system at 22.5 g applied through nutrient solution measured on day 56 post-treatment by gas chromatographic analysis; settings: in vivo, other
Leaf [6] = experiment: Drug level in leaf of Gerbera jamesonii grown in closed hydroponic system assessed per fresh weight at 750 mg/l applied through nutrient solution measured on day 121 post-treatment in winter by gas chromatographic analysis; settings: other
Flower [7] = experiment: Drug level in flower of Gerbera jamesonii grown in closed hydroponic system assessed per fresh weight at 375 mg/l applied through nutrient solution measured on day 56 post-treatment in winter by gas chromatographic analysis; settings: other
Root [8] = experiment: Drug level in root of Gerbera jamesonii grown in closed hydroponic system assessed per fresh weight at 375 mg/l applied through nutrient solution measured on day 17 post-treatment in winter by gas chromatographic analysis; settings: other
Flower [9] = experiment: Drug level in flower of Gerbera jamesonii grown in closed hydroponic system assessed per fresh weight at 750 mg/l applied through nutrient solution measured on day 56 post-treatment in winter by gas chromatographic analysis; settings: other
Root [10] = experiment: Drug level in root of Gerbera jamesonii grown in closed hydroponic system assessed per fresh weight at 375 mg/l applied through nutrient solution measured on day 121 post-treatment in winter by gas chromatographic analysis; settings: other
Leaf [11] = experiment: Drug level in leaf of Gerbera jamesonii grown in closed hydroponic system assessed per fresh weight at 375 mg/l applied through nutrient solution measured on day 50 post-treatment in summer by gas chromatographic analysis; settings: other
Leaf [12] = experiment: Drug level in leaf of Gerbera jamesonii grown in closed hydroponic system assessed per fresh weight at 375 mg/l applied through nutrient solution measured on day 121 post-treatment in winter by gas chromatographic analysis; settings: other
Leaf [13] = experiment: Drug level in leaf of Gerbera jamesonii grown in closed hydroponic system assessed per fresh weight at 750 mg/l applied through nutrient solution measured on day 56 post-treatment in winter by gas chromatographic analysis; settings: other
Root [14] = experiment: Drug level in root of Gerbera jamesonii grown in closed hydroponic system assessed per fresh weight at 750 mg/l applied through nutrient solution measured on day 121 post-treatment in winter by gas chromatographic analysis; settings: other
Leaf [15] = experiment: Drug recovery in leaf of Gerbera jamesonii grown in closed hydroponic system at 45 g applied through nutrient solution measured on day 56 post-treatment by gas chromatographic analysis; settings: in vivo, other
Flower [16] = experiment: Drug level in flower of Gerbera jamesonii grown in closed hydroponic system assessed per fresh weight at 375 mg/l applied through nutrient solution measured on day 121 post-treatment in winter by gas chromatographic analysis; settings: other
Flower [17] = experiment: Drug recovery in flower of Gerbera jamesonii grown in closed hydroponic system at 22.5 g applied through nutrient solution measured on day 56 post-treatment by gas chromatographic analysis; settings: in vivo, other
Flower [18] = experiment: Drug level in flower of Gerbera jamesonii grown in closed hydroponic system at 375 mg/l applied through nutrient solution measured 48 hr post-treatment in winter by gas chromatographic analysis; settings: other
Root [19] = experiment: Drug recovery in root of Gerbera jamesonii grown in closed hydroponic system at 45 g applied through nutrient solution measured on day 56 post-treatment by gas chromatographic analysis; settings: in vivo, other
Flower [20] = experiment: Drug level in flower of Gerbera jamesonii grown in closed hydroponic system at 750 mg/l applied through nutrient solution measured 48 hr post-treatment in winter by gas chromatographic analysis; settings: other
Leaf [21] = experiment: Drug level in leaf of Gerbera jamesonii grown in closed hydroponic system assessed per fresh weight at 375 mg/l applied through nutrient solution measured on day 56 post-treatment in winter by gas chromatographic analysis; settings: other

`Nc1nc(N)nc(NC2CC2)n1` [CYROMAZINE] gave a Drug recovery (Flower [1]) of 27%, a Drug uptake (Root [2]) of 93 mg/kg and a Drug recovery (Root [3]) of 44%. It also gave a Drug uptake (Flower [4]) of 2.2 mg/kg, a Drug recovery (Leaf [5]) of 44% and a Drug uptake (Leaf [6]) of 61.8 mg/kg. It also gave a Drug uptake (Flower [7]) of 32.3 mg/kg, a Drug uptake (Root [8]) of 105 mg/kg and a Drug uptake (Flower [9]) of 48.2 mg/kg. The Drug uptake (Root [10]) was 12.2 mg/kg, the Drug uptake (Leaf [11]) was 65.8 mg/kg and the Drug uptake (Leaf [12]) was 51.5 mg/kg. For the same compound, the Drug uptake (Leaf [13]) was 129.7 mg/kg, the Drug uptake (Root [14]) was 15.1 mg/kg and the Drug recovery (Leaf [15]) was 27%. For the same compound, the Drug uptake (Flower [16]) was 1.9 mg/kg, the Drug recovery (Flower [17]) was 44% and the Drug uptake (Flower [18]) was “Not Active”. The Drug recovery (Root [19]) was 27%, the Drug uptake (Flower [20]) was “Not Active” and the Drug uptake (Leaf [21]) was 105 mg/kg.
